The source of these data is patent EP0403882A2, “Indole derivatives and processes for preparation thereof” (FUJISAWA PHARMACEUTICAL CO., LTD., priority 1989, dated 1990).

One experiment has as its system Benzold-Jarisch reflex. The experiment in a line: Inhibition of Benzold-Jarisch reflex (bradycardic response to 2-methyl-5-hydroxytryptamine in anesthetized rats). The class given is in vivo, Male Sprague-Dawley rats. The conditions noted are these: dose 3.2 μg/kg iv, given 5 minutes before 2-methyl-5-hydroxytryptamine (32 ug/kg, iv), urethane-anesthetized rats. The text has this: (A) Inhibition of Benzold-Jarisch reflex
Male Sprague-Dawley rats weighing 260-350 g were anesthetized intraperitoneally with 1.25 g/kg urethane.
Blood pressure and heart rate were monitored continuously from the left common carotid artery with a pressure transducer. A right femoral vein was connulated for the intravenous injection (iv) of drugs. The trachea was also connulated to ease the respiration.
Rats were given a rapid bolus injection of 2-methyl-5-hydroxytryptamine (32 u.g/kg, iv) to establish the control bradycardic response. Once the heart rate returned to base line, the .rats were given the test compound (iv), followed by 5-minutes interval and another bolus injection of 2-methyl-5-hydroxytryptamine (32 ug/kg, iv).

Experiment [1] relates to Cisplatin-induced vomiting. The experiment in a line: Inhibition of Cisplatin-induced vomiting. In kind it is in vivo, female beagles. Particulars: dose 100 μg/kg intravenously twice, 10 minutes prior to and 90 minutes after Cisplatin (3.2 mg/kg, iv); observed up to 5 hours. How it is done: (B) Inhibition of Cisplatin-induced vomiting
Nonfasted female beagles weighing about 10 kg were administered test compound or saline intravenously twice 10 minutes prior to and 90 minutes after Cisplatin dosing (3.2 mg/kg, iv).
Cisplatin was dissolved in 0.9% warm saline with a final concentration of 3 mgiml and used immediately.

For the compound `Cc1cn(C(=O)CC2CC3CCC(C2)N3C)c2ccccc12.Cl` (centres unmarked) [Example 2, 3-methyl-1-[(8-methyl-8-azabicyclo[3.2.1]oct-3-yl)acetyl]indole hydrochloride], the entries for the “Inhibition (%)” value (in the experiment with Benzold-Jarisch reflex; in experiment [1]) were 52.9% and 95.2%, respectively.
